Laboratory results: US20260250257A1, “ANTIBACTERIAL AND SYNERGISTIC ACTIVE COMPOUND AND USE THEREOF” (EAST CHINA UNIVERSITY OF SCIENCE AND TECHNOLOGY, priority 2023, published 2026)

Experiments:
Format in all cases: cell-based
[1] = test system: ATCC25922 strain (Escherichia coli); assay: Checkerboard antibacterial synergistic activity test with polymyxin E (FIC); design: key: FIC≤0.5 synergy; 0.5–1 additive; 1–2 indifferent; ≥2 antagonism; conditions: combined with polymyxin E
Method in brief: (§1)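 First, two-fold series of polymyxin E (16–0.015 μg/ml) and compound (256–4 μg/ml) were made in MH broth. Next, combinations went into a 96-well grid, bacterial liquid was added, and plates sat at 37° C. for 16 h. Finally, FIC was computed and classed (≤0.5 synergistic).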

[2] = test system: ATCC9027 strain (Pseudomonas aeruginosa); assay: as above; design: key: FIC≤0.5 synergy; 0.5–1 additive; 1–2 indifferent; ≥2 antagonism; conditions: combined with polymyxin E
Method in brief: as §1

[3] = test system: ATCC19606 strain (Acinetobacter baumannii); assay: as above; design: key: FIC≤0.5 synergy; 0.5–1 additive; 1–2 indifferent; ≥2 antagonism; conditions: combined with polymyxin E
Method in brief: as §1

[4] = test system: ATCC13883 strain (Klebsiella pneumoniae); assay: as above; design: key: FIC≤0.5 synergy; 0.5–1 additive; 1–2 indifferent; ≥2 antagonism; conditions: combined with polymyxin E
Method in brief: as §1

[5] = test system: ATCC25922 strain (Escherichia coli); assay: Broth microdilution, antibacterial activity of the compound used alone
Excerpt: (§2) The broth microdilution method was used to test the antibacterial effects of the compounds of the present invention against various Gram-negative bacterial strains when used alone.

[6] = test system: ATCC9027 strain (Pseudomonas aeruginosa); assay: as above
Excerpt: as §2

[7] = test system: ATCC19606 strain (Acinetobacter baumannii); assay: as above
Excerpt: as §2

[8] = test system: ATCC13883 strain (Klebsiella pneumoniae); assay: as above
Excerpt: as §2

Row | SMILES | Synergistic activity (FIC value) ATCC25922 [1] | Synergistic activity (FIC value) ATCC9027 [2] | Synergistic activity (FIC value) ATCC19606 [3] | Synergistic activity (FIC value) ATCC13883 [4] | Antibacterial activity of the compound of Formula I, ATCC25922 [5] [µg/mL] | Antibacterial activity of the compound of Formula I, ATCC9027 [6] [µg/mL] | Antibacterial activity of the compound of Formula I, ATCC19606 [7] [µg/mL] | Antibacterial activity of the compound of Formula I, ATCC13883 [8] [µg/mL]
1 | Cc1sc(N=C(N)N)nc1-c1ccc(Cl)cc1Oc1ccc(Cl)cc1Cl [Compound I-89] | 0.15 | 0.18 | 0.02 | 0.13 | 256 | 256 | 256 | 256
2 | NC(N)=Nc1nc(-c2ccc(F)cc2Oc2ccc(Cl)cc2Cl)c(Cl)s1 [Compound I-90] | 0.15 | 0.18 | 0.03 | 0.13 | 256 | 256 | 256 | 256
3 | Cc1ccccc1Oc1cccc(-c2csc(N=C(N)N)n2)c1 [Compound I-91] | 0.26 | 0.52 | 0.04 | 0.19 | 128 | 64 | 256 | 128
4 | Cc1ccc(Oc2cccc(-c3coc(N=C(N)N)n3)c2)c(C)c1 [Compound I-92] | 0.04 | 0.04 | 0.38 | 0.19 | 256 | 256 | 256 | 256
5 | COc1ccc(Oc2cccc(-c3c[nH]c(N=C(N)N)n3)c2)c(C)c1 [Compound I-93] | 0.18 | 0.28 | 0.03 | 0.16 | 256 | 256 | 256 | 256
6 | NC(N)=Nc1nc(-c2cccc(Oc3ccccc3Cl)c2)cs1 [Compound I-94] | 0.26 | 0.52 | 0.04 | 0.19 | 256 | 256 | 256 | 256
7 | NC(N)=Nc1nc(-c2cccc(Oc3ccc(Cl)cc3Cl)c2)cs1 [Compound I-95] | 0.04 | 0.04 | 0.38 | 0.19 | 256 | 256 | 256 | 256
